The numbers were not newly measured in patent US7785629B2, “Bicalutamide-adsorbates, process for preparing same, and pharmaceutical compositions thereof” (Helm AG, priority 2005, dated 2010), which cites them from elsewhere.

The conditions of this data set: water and aqueous buffers at various pH values.

SMILES strings stand for the structures.

`CC(O)(CS(=O)(=O)c1ccc(F)cc1)C(=O)Nc1ccc(C#N)c(C(F)(F)F)c1` (stereo not shown) [Bicalutamide, N-[4′-cyano-3′-trifluoromethyl-phenyl]-3-[4″-fluorophenylsulfonyl]-2-hydroxy-2-methyl-propionamide]: the Solubility entry was “sparingly soluble”.
